Assays:
MV4-11 cells = assay: MV4-11 cellular proliferative assay, Assay Format A (CellTiter-Glo, 120 h); assay type: cell-based; settings: Homo sapiens, Assay method A, Table 3, read-out: MV4-11 antiproliferative IC50
Summary of the method: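 MV4-11 cells seeded at 50 cells/well and exposed for 120 h to compound (10 semi-log dilutions, top 30 μM) or DMSO. Viability by CellTiter-Glo luminescence, normalised to DMSO and reference-compound wells; AC50 from Hill fit.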

MLLT1 = molecular target: T1, MLLT1 (Homo sapiens, UniProt Q03111); assay: MLLT1 HTRF IC50 determination assay (H3K9cro peptide displacement); assay type: binding
T1 sequence (Q03111 1-559): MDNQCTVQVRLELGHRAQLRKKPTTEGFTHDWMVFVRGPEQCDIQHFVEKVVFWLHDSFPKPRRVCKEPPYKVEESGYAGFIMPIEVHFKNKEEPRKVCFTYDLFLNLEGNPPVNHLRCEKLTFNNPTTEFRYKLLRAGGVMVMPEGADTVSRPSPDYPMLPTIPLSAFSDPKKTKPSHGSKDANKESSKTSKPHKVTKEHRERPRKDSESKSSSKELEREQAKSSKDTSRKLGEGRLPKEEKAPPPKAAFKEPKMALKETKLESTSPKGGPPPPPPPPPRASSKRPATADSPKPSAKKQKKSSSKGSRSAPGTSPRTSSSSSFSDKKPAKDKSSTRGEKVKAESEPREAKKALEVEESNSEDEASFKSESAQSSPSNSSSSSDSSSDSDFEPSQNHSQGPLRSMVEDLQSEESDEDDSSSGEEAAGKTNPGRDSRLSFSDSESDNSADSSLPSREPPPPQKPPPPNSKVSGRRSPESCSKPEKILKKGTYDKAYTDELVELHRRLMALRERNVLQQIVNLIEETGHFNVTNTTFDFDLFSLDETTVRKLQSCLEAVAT
Text: (§1) This procedure is intended to measure the interaction between YEATS proteins and histone peptides modified by an appropriate epigenetic mark and can be used to assay compounds which bind to the YEATS proteins and inhibit this interaction. The assay uses 6His tagged MLLT1 or MLLT3 with an anti-6His antibody conjugated with Eu^3+ chelate (donor) and a biotinylated peptide with Streptavidin conjugated XL-665 (acceptor). When the donor and acceptor labels are in close proximity, by binding of the peptide by MLLT1 or MLLT3, the excitation of the donor (337 nm) triggers a Fluorescence Resonance Energy Transfer (FRET) to the acceptor which then fluoresces at specific wavelength (665 nm).
(§2) This step optimises the protein/peptide ratio that will be used in HTRF screening assay in order to allow the best signal-to-noise ratio. Each new purified protein should be titrate this way as the signal-to-noise ratio may differ from different protein batches. Displacement assay for MLLT1 and MLLT3 was performed by using H3K9 cro peptide (ARTKQTAR(Kcrot)STGGKAPRKQLYK(biotin)).
(§3) A serial dilution of 4× solution of biotinylated peptide was prepared in assay buffer (25 mM HEPES, 20 mM NaCl, 0.05% BSA, 0.05% Tween-20, pH 7.0) covering concentrations from 3.2 μM to 0.2 nM. and 5 μL of each dilution were transferred horizontally to fill 15 columns of a white ProxiPlate-384 Plus shallow well Microplate (Perkin Elmer, USA). A sixteenth column of buffer was also included for a background reference. In parallel, a serial dilution of the 6His-tag protein of interest was prepared in the same way and 5 μL of each dilution were vertically added to the wells containing the peptide dilutions. Buffer has been transferred to the last line of the plate in order to make a no-protein reference. The microplate has been covered and incubated 1 hour at room temperature. A 2× detection mix was prepared in assay buffer by diluting streptavidin conjugated with XL-665 (610SAXLB, Cisbio Bioassays, France) to 1/2000 and anti-6His(Eu) chelate (LANCE Eu-W1024 Anti-6×His, ADO111, Perkinelmer LAS (UK)LTD) to 1/20000, 10 μL were added to each well and the plate has been incubated for 1 to 24 hours at room temperature in the dark. The plate was read in the Pherastar using the HTRF module with dual emission protocol (A=ex. 320 nm em. 665 nm, B=ex. 320 nm em. 620 nm).
(§4) The HTRF ratio was calculated as channel A/B*10000 and the specific signal as follow: specific signal=HTRF Ratio Positive signal—HTRF Ratio Negative signal (without protein). The concentrations of protein and peptide that allow the maximum specific signal without saturation were selected to perform HRTF screening assay described below.
(§5) The compounds were dissolved in DMSO at a stock concentration of 10 mM and dispensed into microplate using the Echo acoustic liquid handler (Labcyte, Beckman Coulter, USA). The assay covers a window of compound concentrations from 20 μM to 20 nM spread in 11 data points in duplicate. Solvent and compound controls were added to each plate in order to calculate the background signal.
(§6) Ten microliters of 2× mix of 6His-protein and biotinylated peptide, the concentrations were determined above, were added to the dispensed compounds and incubated for one hour at room temperature in the dark. Ten microliters of the 2× detection mix was added to each well and the plate was incubated for another hour at room temperature in the dark and the plate was read in order to calculate the HTRF specific signal. The % inhibition values as follows:
(§7) The IC50 values were determined by plotting % inhibition vs compound concentration and fitting the data to a non-linear sigmoidal dose response equation (4 parameter fit): […]

MLLT3 = molecular target: T2, MLLT3 (Homo sapiens, UniProt P42568); assay: MLLT3 HTRF IC50 determination assay (H3K9cro peptide displacement); assay type: binding
T2 sequence (P42568 1-568): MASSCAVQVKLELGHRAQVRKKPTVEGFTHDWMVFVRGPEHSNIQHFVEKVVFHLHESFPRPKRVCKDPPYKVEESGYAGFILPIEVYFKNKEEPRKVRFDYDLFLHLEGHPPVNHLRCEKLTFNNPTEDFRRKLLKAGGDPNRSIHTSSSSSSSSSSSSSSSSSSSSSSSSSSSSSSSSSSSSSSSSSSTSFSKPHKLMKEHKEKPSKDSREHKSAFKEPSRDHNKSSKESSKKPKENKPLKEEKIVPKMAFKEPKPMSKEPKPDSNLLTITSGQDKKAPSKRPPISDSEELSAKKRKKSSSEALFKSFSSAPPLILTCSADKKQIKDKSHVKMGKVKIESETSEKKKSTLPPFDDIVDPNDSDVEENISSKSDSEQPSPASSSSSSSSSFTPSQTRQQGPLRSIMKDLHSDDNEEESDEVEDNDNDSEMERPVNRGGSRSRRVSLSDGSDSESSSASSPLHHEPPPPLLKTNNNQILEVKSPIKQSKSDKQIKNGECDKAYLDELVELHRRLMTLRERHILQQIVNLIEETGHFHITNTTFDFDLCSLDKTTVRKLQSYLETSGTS
Text: as §1, §2, §3, §4, §5, §6, §7

Row | SMILES | IC50 (MV4-11 cells) [nM] | IC50 (MLLT1; Table 5) [nM] | IC50 (MLLT1; category, Table 4) [nM] | IC50 (MLLT3; Table 5) [nM] | IC50 (MLLT3; category, Table 4) [nM]
1 | Cc1nn(C)c2cc(C(=O)Nc3cc4[nH]c([C@H]5CCCN5C)cc4cn3)ccc12 (single isomer, unassigned) [Example 76] | 40 | 43 | ≤ 100 | 81 | ≤ 100
2 | CN1CCCC1c1[nH]c2cc(NC(=O)c3ccc4c(cnn4C)c3)ncc2c1F (single isomer, unassigned) [Example 86, N-{3-fluoro-2-[(rel-2S)-1-methylpyrrolidin-2-yl]-1H-pyrrolo[3,2-c]pyridin-6-yl}-1-methylindazole-5-carboxamide] |  |  | 1000 to 10000 |  | 1000 to 10000
3 | CN1CCCC1c1[nH]c2cc(NC(=O)c3ccc4c(cnn4C)c3)ncc2c1F (single isomer, unassigned) [Example 87, N-{3-fluoro-2-[(rel-2R)-1-methylpyrrolidin-2-yl]-1H-pyrrolo[3,2-c]pyridin-6-yl}-1-methylindazole-5-carboxamide] |  |  | ≤ 100 |  | ≤ 100
4 | Cc1nn(C)c2cc(C(=O)Nc3cc4[nH]c(C5CCCN5C)c(F)c4cn3)ccc12 (single isomer, unassigned) [Example 88, N-{3-fluoro-2-[(rel-2R)-1-methylpyrrolidin-2-yl]-1H-pyrrolo[3,2-c]pyridin-6-yl}-1,3-dimethylindazole-6-carboxamide] |  | 17 | ≤ 100 | 37 | ≤ 100
5 | Cc1nn(C)c2cc(C(=O)Nc3cc4[nH]c(C5CCCN5C)c(F)c4cn3)ccc12 (single isomer, unassigned) [Example 89, N-{3-fluoro-2-[(rel-2S)-1-methylpyrrolidin-2-yl]-1H-pyrrolo[3,2-c]pyridin-6-yl}-1,3-dimethylindazole-6-carboxamide] |  |  | 100 to 1000 |  | 1000 to 10000
6 | Cc1c(C2CCCN2C)[nH]c2cc(NC(=O)c3ccc4c(C)nn(C)c4c3)ncc12 (single isomer, unassigned) [Example 90, 1,3-dimethyl-N-{3-methyl-2-[(rel-2R)-1-methylpyrrolidin-2-yl]-1H-pyrrolo[3,2-c]pyridin-6-yl}indazole-6-carboxamide] |  | 12 | ≤ 100 | 45 | ≤ 100
7 | Cc1c(C2CCCN2C)[nH]c2cc(NC(=O)c3ccc4c(C)nn(C)c4c3)ncc12 (single isomer, unassigned) [Example 91, 1,3-dimethyl-N-{3-methyl-2-[(rel-2S)-1-methylpyrrolidin-2-yl]-1H-pyrrolo[3,2-c]pyridin-6-yl}indazole-6-carboxamide] |  |  | 1000 to 10000 |  | 1000 to 10000
8 | Cc1nc(NC(=O)c2ccc3c(C)nn(C)c3c2)cc2[nH]c(C3CCCN3C)cc12 (single isomer, unassigned) [Example 92, 1,3-dimethyl-N-{4-methyl-2-[(rel-2R)-1-methylpyrrolidin-2-yl]-1H-pyrrolo[3,2-c]pyridin-6-yl}indazole-6-carboxamide] |  | 37 | ≤ 100 | 63 | ≤ 100
9 | Cc1nc(NC(=O)c2ccc3c(C)nn(C)c3c2)cc2[nH]c(C3CCCN3C)cc12 (single isomer, unassigned) [Example 93, 1,3-dimethyl-N-{4-methyl-2-[(rel-2S)-1-methylpyrrolidin-2-yl]-1H-pyrrolo[3,2-c]pyridin-6-yl}indazole-6-carboxamide] |  |  | 1000 to 10000 |  | 1000 to 10000
10 | Cc1nn(C)c2cc(C(=O)Nc3cc4[nH]c([C@H]5CCCN5C)c(Cl)c4cn3)ccc12 [Example 80, N-{3-chloro-2-[(2R)-1-methylpyrrolidin-2-yl]-1H-pyrrolo[3,2-c]pyridin-6-yl}-1,3-dimethylindazole-6-carboxamide] |  | 6 | ≤ 100 | 22 | ≤ 100
11 | Cc1nn(C)c2cc(C(=O)Nc3cc4[nH]c([C@@H]5CCCN5C)c(Cl)c4cn3)ccc12 [Example 81, N-{3-chloro-2-[(2S)-1-methylpyrrolidin-2-yl]-1H-pyrrolo[3,2-c]pyridin-6-yl}-1,3-dimethylindazole-6-carboxamide] |  |  | 100 to 1000 |  | 1000 to 10000
